Assay results: PubChem BioAssay AID248 (DTP/NCI, 2004)
Values joined by “and” are separate entries in the source; they are usually repeats but may differ in a detail not shown here. Equal values may be shown once. Inconclusive results and toxic doses are left out. Cut-off read from the data, not from the text of the source: active = T/C of 150% or more; inactive = T/C below 125%.

Test system: L1210 leukemia ip in BDF1 mice, survival T/C
Test: NCI In Vivo Anticancer Drug Screen. Data for tumor model L1210 Leukemia (intraperitoneal) in B6D2F1 (BDF1) mice
Details: endpoint: mean survival time, higher = longer survival
Method in brief: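 Antitumor effect is assessed in tumor-bearing animals. Survival in the compound arm is compared with a vehicle-dosed control arm and expressed as their quotient.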

[1] = dose: 100.0 mg/kg/injection, schedule: Q04DX002 (ip), vehicle: Klucel (hydroxypropylcellulose) (HPC)
[2] = dose: 200.0 mg/kg/injection, schedule: Q04DX002 (ip), vehicle: Klucel (hydroxypropylcellulose) (HPC)
[3] = dose: 400.0 mg/kg/injection, schedule: Q04DX002 (ip), vehicle: Klucel (hydroxypropylcellulose) (HPC)
[4] = dose: 100.0 mg/kg/injection, schedule: Q01DX001 (ip), vehicle: carboxymethylcellulose (CMC)
[5] = dose: 200.0 mg/kg/injection, schedule: Q01DX001 (ip), vehicle: carboxymethylcellulose (CMC)
[6] = dose: 50.0 mg/kg/injection, schedule: Q04DX002 (ip), vehicle: Klucel (hydroxypropylcellulose) (HPC)
[7] = dose: 100.0 mg/kg/injection, schedule: Q01DX009 (ip), vehicle: Klucel (hydroxypropylcellulose) (HPC)
[8] = dose: 200.0 mg/kg/injection, schedule: Q01DX009 (ip), vehicle: Klucel (hydroxypropylcellulose) (HPC)
[9] = dose: 400.0 mg/kg/injection, schedule: Q01DX009 (ip), vehicle: Klucel (hydroxypropylcellulose) (HPC)
[10] = dose: 100.0 mg/kg/injection, schedule: Q04DX003 (ip), vehicle: Klucel (hydroxypropylcellulose) (HPC)
[11] = dose: 200.0 mg/kg/injection, schedule: Q04DX003 (ip), vehicle: Klucel (hydroxypropylcellulose) (HPC)
[12] = dose: 400.0 mg/kg/injection, schedule: Q04DX003 (ip), vehicle: Klucel (hydroxypropylcellulose) (HPC)

Measured: T/C

NCC(NCc1ccccc1)(c1ccccc1)c1ccccc1
inactive: dose: 20.0 mg/kg/injection, schedule: Q04DX003 (ip), vehicle: Klucel (hydroxypropylcellulose) (HPC) 94 % of control | dose: 40.0 mg/kg/injection, schedule: Q04DX003 (ip), vehicle: Klucel (hydroxypropylcellulose) (HPC) 96 % of control | dose: 80.0 mg/kg/injection, schedule: Q04DX003 (ip), vehicle: Klucel (hydroxypropylcellulose) (HPC) 102 % of control

Cc1ccc(C(=O)Cc2ccccc2)cc1
inactive: [1] 94 % of control | [2] 98 % of control | [3] 110 % of control

O=[N+]([O-])c1ccc(/C=N/N2CCN(/N=C/c3ccc([N+](=O)[O-])cc3)CC2)cc1
inactive: dose: 100.0 mg/kg/injection, schedule: Q01DX001 (ip), vehicle: saline 96 % of control | dose: 200.0 mg/kg/injection, schedule: Q01DX001 (ip), vehicle: saline 92 % of control | dose: 400.0 mg/kg/injection, schedule: Q01DX001 (ip), vehicle: saline 92 % of control

COc1ccccc1CN1CCCN(Cc2ccccc2OC)C1c1ccccc1F
inactive: dose: 50.0 mg/kg/injection, schedule: Q01DX001 (ip), vehicle: carboxymethylcellulose (CMC) 114 % of control | [4] 108 % of control | [5] 96 % of control | dose: 400.0 mg/kg/injection, schedule: Q01DX001 (ip), vehicle: carboxymethylcellulose (CMC) 112 % of control

CCc1oc2cc([N+](=O)[O-])ccc2c1C#N
inactive: dose: 25.0 mg/kg/injection, schedule: Q04DX002 (ip), vehicle: Klucel (hydroxypropylcellulose) (HPC) 86 % of control | [6] 89 % of control | [7] 97 % of control | [1] 93 % of control | [8] 101 % of control | [9] 97 % of control

Cc1c(C)c(CO)c(C)c(C)c1CO
inactive: dose: 12.5 mg/kg/injection, schedule: Q04DX003 (ip), vehicle: Klucel (hydroxypropylcellulose) (HPC) 94 % of control | dose: 25.0 mg/kg/injection, schedule: Q04DX003 (ip), vehicle: Klucel (hydroxypropylcellulose) (HPC) 92 % of control | dose: 50.0 mg/kg/injection, schedule: Q04DX003 (ip), vehicle: Klucel (hydroxypropylcellulose) (HPC) 97 % of control

CC(=O)c1ccc(NC(N)=S)cc1
inactive: dose: 5.0 mg/kg/injection, schedule: Q01DX009 (ip), vehicle: saline with Tween-80 88 % of control | dose: 10.0 mg/kg/injection, schedule: Q01DX009 (ip), vehicle: saline with Tween-80 98 % of control | dose: 20.0 mg/kg/injection, schedule: Q01DX009 (ip), vehicle: saline with Tween-80 103 % of control and 90 % of control | dose: 40.0 mg/kg/injection, schedule: Q01DX009 (ip), vehicle: saline with Tween-80 97 % of control and 104 % of control | dose: 80.0 mg/kg/injection, schedule: Q01DX009 (ip), vehicle: saline with Tween-80 91 % of control

CC(C)CC(CO)Cc1nc2ccccc2[nH]1 (stereo not drawn)
inactive: [6] 95 % of control | [1] 95 % of control | dose: 100.0 mg/kg/injection, schedule: Q04DX002 (ip), vehicle: other 105 % of control | dose: 100.0 mg/kg/injection, schedule: Q04DX003 (ip), vehicle: other 97 % of control | [2] 93 % of control and 92 % of control | dose: 200.0 mg/kg/injection, schedule: Q04DX002 (ip), vehicle: other 91 % of control and 92 % of control | dose: 200.0 mg/kg/injection, schedule: Q04DX003 (ip), vehicle: other 94 % of control | [3] 105 % of control | dose: 400.0 mg/kg/injection, schedule: Q04DX002 (ip), vehicle: other 102 % of control

O=C1COC(=O)N1
inactive: dose: 100.0 mg/kg/injection, schedule: Q01DX009 (ip), vehicle: saline 100 % of control | dose: 200.0 mg/kg/injection, schedule: Q01DX009 (ip), vehicle: saline 100 % of control | dose: 400.0 mg/kg/injection, schedule: Q01DX009 (ip), vehicle: saline 100 % of control

CN(C)c1ncnc2[nH]cc([N+](=O)[O-])c12
inactive: [4] 93 % of control | [5] 93 % of control

Cc1ccc(S(=O)(=O)N2CC(O)CC2C(=O)O)cc1 (stereo not drawn)
inactive: dose: 100.0 mg/kg/injection, schedule: Q01DX009 (ip), vehicle: saline with Tween-80 96 % of control | dose: 100.0 mg/kg/injection, schedule: Q04DX003 (ip), vehicle: saline with Tween-80 93 % of control and 100 % of control | dose: 200.0 mg/kg/injection, schedule: Q01DX009 (ip), vehicle: saline with Tween-80 101 % of control | dose: 200.0 mg/kg/injection, schedule: Q04DX003 (ip), vehicle: saline with Tween-80 95 % of control and 103 % of control | dose: 400.0 mg/kg/injection, schedule: Q01DX009 (ip), vehicle: saline with Tween-80 101 % of control | dose: 400.0 mg/kg/injection, schedule: Q04DX003 (ip), vehicle: saline with Tween-80 93 % of control and 96 % of control

CCCCCCCCC(=O)C[N+](=O)[O-]
inactive: dose: 18.8 mg/kg/injection, schedule: Q01DX009 (ip), vehicle: saline 97 % of control | dose: 18.8 mg/kg/injection, schedule: Q04DX003 (ip), vehicle: saline 106 % of control | dose: 37.5 mg/kg/injection, schedule: Q01DX009 (ip), vehicle: saline 95 % of control | dose: 37.5 mg/kg/injection, schedule: Q04DX003 (ip), vehicle: saline 95 % of control | dose: 75.0 mg/kg/injection, schedule: Q01DX001 (ip), vehicle: saline 93 % of control | dose: 75.0 mg/kg/injection, schedule: Q01DX009 (ip), vehicle: saline 99 % of control | dose: 75.0 mg/kg/injection, schedule: Q04DX003 (ip), vehicle: saline 95 % of control

O=[N+]([O-])/C=C/c1cccs1
inactive: dose: 100.0 mg/kg/injection, schedule: Q01DX001 (ip), vehicle: Klucel (hydroxypropylcellulose) (HPC) 98 % of control | dose: 200.0 mg/kg/injection, schedule: Q01DX001 (ip), vehicle: Klucel (hydroxypropylcellulose) (HPC) 103 % of control

C[C@H]1CCC/C=C/[C@@H]2C[C@H](O)C[C@H]2[C@H](O)/C=C/C(=O)O1
inactive: [4] 105 % of control | dose: 100.0 mg/kg/injection, schedule: Q01DX001 (ip), vehicle: other 92 % of control | dose: 100.0 mg/kg/injection, schedule: Q01DX015 (ip), vehicle: water 96 % of control | [5] 103 % of control | dose: 200.0 mg/kg/injection, schedule: Q01DX001 (ip), vehicle: other 95 % of control | dose: 200.0 mg/kg/injection, schedule: Q01DX015 (ip), vehicle: water 103 % of control | dose: 400.0 mg/kg/injection, schedule: Q01DX001 (ip), vehicle: other 93 % of control

O=C(O)c1ccccc1C1C=CCCC1 (stereo not drawn)
inactive: dose: 100.0 mg/kg/injection, schedule: Q04DX002 (ip), vehicle: saline with Tween-80 101 % of control | dose: 200.0 mg/kg/injection, schedule: Q04DX002 (ip), vehicle: saline with Tween-80 101 % of control | dose: 400.0 mg/kg/injection, schedule: Q04DX002 (ip), vehicle: saline with Tween-80 104 % of control

COc1ccc(C(=O)CCCCl)cc1
inactive: [7] 102 % of control | [10] 107 % of control | [8] 102 % of control | [11] 96 % of control | [9] 89 % of control | [12] 102 % of control

CN(C)c1ccccc1C(=O)N/N=C/c1ccc(F)cc1
inactive: [7] 95 % of control | [10] 99 % of control | [8] 93 % of control | [11] 99 % of control | [9] 96 % of control | [12] 93 % of control
